US20180237362A1, “NOVEL POLYGODIAL ANALOGS FOR THE TREATMENT OF CANCER AND OTHER PROLIFERATIVE DISEASES” (THE BOARD OF REGENTS OF THE UNIVERSITY OF TAXAS SYSTEM, priority 2015, published 2018)

How the values were obtained:
Cal27-derived tumors = assay: Mouse xenograft model, Cal27; type: in vivo, athymic nude mice
Experimental: Six-week old female athymic nude mice were used in laminar air-flow cabinet in pathogen-free conditions. They were acclimated for one week prior to the start of the study and kept at controlled temperature and humidity, with food and water. Mice were injected subcutaneously in the flank with 2×10^6 Cal27 cells or HeLa cells in 0.1 mL of sterile PBS. When the tumors reached 100 mm^3 (Cal27) and 150 mm^3 (HeLa), the mice were stratified into 4 groups, […], polygodial, P10, P3 and P27 at the concentrations noted in the figure legends.

[1] = tested on: U87 glioblastoma cell cultures; assay: MTT growth curves, U87; type: cell-based, human; conditions: apoptosis-resistant U87 GBM; concentrations up to 100 μM
Experimental: Human mammary carcinoma MCF-7 (ATCC HTB22) cells were cultured in RPMI supplemented with 10% FBS. The U87 cells (ATCC HTB-14) were cultured in DMEM culture medium, while the A549 cells (DSMZ ACC107) were cultured in RPMI culture medium supplemented with 10% heat-inactivated FBS. The GBM Hs683 (ATCC HTB-138) cells were cultivated in DMEM supplemented with 10% FBS. The human uterine sarcoma MES-SA (ATCC CRL1966) and MES-SA/D×5 cells were cultured in RPMI-1640 medium supplemented with 10% FBS with MES SA/D×5 maintained in the presence of 500 nM Doxorubicin (Sigma). SKMEL-28 cells (ATCC HTB72) and U373 GBM cells (ECACC 08061901) were cultured in RPMI culture medium supplemented with 10% heat-inactivated FBS. Cell culture media were supplemented with 4 mM glutamine (Lonza code BE17-605E), 100 μg/mL gentamicin (Lonza code 17-5182), and penicillin-streptomycin (200 units/ml and 200 μg/ml) (Lonza code 17-602E). The MDA-MB-231 (ATCC HTB-26) epithelial mammary adenocarcinoma cells were cultured in Eagle's minimum essential medium (EMEM; Invitrogen) containing 5% fetal calf serum (FCS, Cambrex), 2 mM L-glutamine (Invitrogen), 0.06% HEPES (Invitrogen) and penicillin (50 IU/ml)/streptomycin (50 µg/ml; Invitrogen) at 37° C. in a humidified atmosphere of 5% CO2 in air. Transformed mouse NPCs were cultured in suspension under neurosphere conditions at 37° C. in a humidified atmosphere of […] and 5% CO2 in DMEM F12 (Invitrogen 11320-074) supplemented with 1×B27 supplement (Invitrogen 17504-044), 5% penicillin-streptomycin (Biochrom 10378-017), 10 ng/ml EGF (R&D systems 236-EG), 10 ng/ml FGF (PeproTech 100-18B).
Antiproliferative properties of the synthesized compounds were evaluated by the MTT assay. All compounds were dissolved in DMSO at a concentration of either 100 μM or 50 μM prior to cell treatment. The cells were trypsinized and seeded at various cell concentrations depending on the cell type. […]

HeLa cells = assay: Morphological changes, HeLa; type: cell-based, human; conditions: P3 50 μM, 1 hour
Experimental: FIGS. 12A-B Morphological changes (20×) in HeLa cells (FIG. 12Aa-d) and HSC3 cells (FIG. 12Ba-d) with no treatment (a) or treated with Polygodial 80 μM (b), P10 4 μM (c), and P3 50 μM (d) for 1 hour. Differences in morphological changes between treatments indicate potentially unique mechanisms-of-action between polygodial and P10 (isomer), and P3 (novel analog).

Row | inflammatory response, Cal27 xenograft mice (Cal27-derived tumors; days 2-4, intra-tumor injection) | Compound | anti-tumor effect, Cal27-derived tumors (Cal27-derived tumors; 40 μg/100 μl intra-tumor injection every other day for 18 days, no significant difference between polygodial and P27) | effect on proliferation/viability of all cells, U87 [1] | morphological changes, HeLa (HeLa cells)
1 | notable inflammatory response | CC1(C)CCC[C@]2(C)[C@@H](C=O)C(C=O)=CC[C@@H]12 [Compound 1, Polygodial] | significant anti-tumor effects | – | –
2 | – | COC(=O)/C=C/C1=CC[C@H]2C(C)(C)CCC[C@]2(C)[C@H]1C=O [Compound 5] | – | growth inhibitory properties against most of the cells | apoptotic figures
